Among the test systems are SR leukemia; SK-OV-3 ovarian; CAKI-1 renal; HS 578T breast; COLO 205 colon; HCT-15 colon; K-562 leukemia; EKVX NSCLC.
Holding throughout (assay): NCI anticancer screen, dose series, 48 h

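Assay format: 96-well plates, 48-hour exposure. At the GI50, growth is halved. TGI marks complete inhibition of growth.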

With `Cc1cc(Cl)cc(OCCn2cc(F)cn2)c1-c1nc(N)nc2c1CN(C(=O)NCC(C)(F)F)C2`, the GI50 in the test on SR leukemia is 0.0495 µM; in the test on SK-OV-3 ovarian, 0.0492 µM; in the test with CAKI-1 renal, 0.755 µM; with COLO 205 colon, 0.0395 µM; in the test with HCT-15 colon it was 0.386 µM; with K-562 leukemia it was 0.0519 µM. Further, the TGI with SR leukemia is over 100 µM; in the test on SK-OV-3 ovarian, over 100 µM; in the test with CAKI-1 renal it was over 100 µM; in the test with HS 578T breast, over 100 µM; in the test on COLO 205 colon it was 1.19 µM; in the test on HCT-15 colon it was over 100 µM. For the same compound, the TGI in the test on K-562 leukemia is over 100 µM.
In the case of `Cn1cc(C2=C(c3ccc(N)cc3)C(=O)NC2=O)c2ccccc21`, the GI50 in the test on SR leukemia was 9.43 µM; in the test on SK-OV-3 ovarian it was 13.9 µM; in the test on CAKI-1 renal, over 18.9 µM; in the test on HS 578T breast, 3.01 µM; in the test with COLO 205 colon, 11.6 µM; with HCT-15 colon, 11.5 µM. Further, the GI50 in the test on K-562 leukemia was 9.71 µM. Further, the TGI was over 25 µM with SR leukemia; over 25 µM in the test with SK-OV-3 ovarian; over 25 µM in the test with CAKI-1 renal; over 16.1 µM in the test on HS 578T breast; over 25 µM in the test with COLO 205 colon; over 25 µM in the test with HCT-15 colon. In addition, in the test on K-562 leukemia, the TGI is over 25 µM.
With `N=C(N)C1CN(CCc2c[nH]c3ccccc23)C(=O)NC1=O` (stereo not drawn), the TGI with SR leukemia, in the test with SK-OV-3 ovarian, in the test on EKVX NSCLC, in the test with COLO 205 colon, in the test on HCT-15 colon and in the test on K-562 leukemia was over 100 µM each time.
Consider `Cc1cc(Nc2ccc(NC(=O)c3ccc(Nc4ccnc5ccccc45)cc3)cc2)nc(N)n1`, for which the GI50 in the test on SK-OV-3 ovarian is 7.15 µM; in the test with EKVX NSCLC, 2.95 µM; in the test on CAKI-1 renal, over 100 µM; in the test with HS 578T breast, 5.79 µM; in the test with HCT-15 colon, 6.16 µM. Besides, the TGI in the test on SK-OV-3 ovarian was 54.8 µM; in the test with EKVX NSCLC, over 100 µM; in the test on CAKI-1 renal, over 100 µM; with HS 578T breast, over 100 µM; with HCT-15 colon, over 100 µM.
On to `Nc1ccc([N+](=O)[O-])cc1N=C/C=C/c1ccccc1`, for which the GI50 was 3.48 µM in the test with SR leukemia; 26.5 µM in the test with SK-OV-3 ovarian; 19.1 µM with EKVX NSCLC; 23 µM with COLO 205 colon; 13.5 µM in the test with HCT-15 colon; 5.43 µM in the test on K-562 leukemia. The TGI with SR leukemia, with SK-OV-3 ovarian, with EKVX NSCLC, in the test with COLO 205 colon, with HCT-15 colon and in the test on K-562 leukemia was over 100 µM throughout.
For the compound `C#CCOc1cccc(-c2ncc3cc(NC(=O)CCl)ccc3n2)c1`, the results for the GI50 in the test with SK-OV-3 ovarian, in the test with CAKI-1 renal and in the test with K-562 leukemia were 3.58 µM, 1.88 µM and 0.561 µM, respectively. Besides, the values for the TGI with SK-OV-3 ovarian, in the test with CAKI-1 renal and in the test with K-562 leukemia were over 100 µM, 3.31 µM and over 100 µM, respectively.
For the compound `N#Cc1c(N)nc(N2CCOCC2)c(C#N)c1-c1ccncc1`, the GI50 in the test on SK-OV-3 ovarian was 37 µM; in the test with EKVX NSCLC it was 66.7 µM; with CAKI-1 renal, 49.1 µM; in the test with HS 578T breast, 38.3 µM; in the test with COLO 205 colon, over 100 µM; with HCT-15 colon, over 100 µM. For the same compound, the GI50 in the test with K-562 leukemia is over 100 µM. Also, the TGI in the test with SK-OV-3 ovarian, in the test with EKVX NSCLC, in the test on CAKI-1 renal, in the test with HS 578T breast, in the test with COLO 205 colon and with HCT-15 colon was over 100 µM each time. The TGI in the test with K-562 leukemia was over 100 µM.
With `CC1(C)CC(=O)C(C=NC(=S)c2ccccc2)=C(O)C1`, the TGI in the test with SK-OV-3 ovarian, with EKVX NSCLC, in the test with CAKI-1 renal, in the test on HS 578T breast, in the test with COLO 205 colon and in the test on HCT-15 colon was over 100 µM throughout.
Take `NC(=O)/C=C/C(=O)c1c(Cl)cccc1Cl`: the GI50 with SR leukemia is 0.224 µM; in the test on SK-OV-3 ovarian, 2.6 µM; in the test with CAKI-1 renal it was 0.971 µM; in the test with HS 578T breast, 2.2 µM; in the test on COLO 205 colon, 0.191 µM; in the test with K-562 leukemia it was 0.653 µM. Further, the TGI in the test with SR leukemia stood at 1.37 µM; in the test with SK-OV-3 ovarian it was 6.38 µM; in the test on CAKI-1 renal, 2.5 µM; with HS 578T breast, 5.15 µM; in the test with COLO 205 colon, 0.355 µM; with HCT-15 colon, 2.3 µM. This compound returned a TGI with K-562 leukemia of 5.83 µM.
With `CC(=O)Nc1ccc(S(=O)(=O)N2C(=O)CCC2C(=O)Nc2ccc(Br)cc2)cc1` (stereo not drawn), the GI50 in the test with SR leukemia was 1.41 µM; in the test on SK-OV-3 ovarian, 3.58 µM; in the test on CAKI-1 renal it was 4.37 µM; in the test with HS 578T breast, 3.05 µM; in the test with COLO 205 colon, 3.01 µM; in the test on HCT-15 colon, 1.72 µM. In the test with K-562 leukemia, the GI50 is 1.95 µM. Besides, the TGI is 5.38 µM in the test on SR leukemia; 16.1 µM in the test with SK-OV-3 ovarian; 17.7 µM in the test with CAKI-1 renal; 22.5 µM in the test with HS 578T breast; 11.7 µM in the test with COLO 205 colon; 13 µM with HCT-15 colon. The compound also gave a TGI in the test with K-562 leukemia of 10.7 µM.
Take `COc1cccc(F)c1C(=O)c1cnc(NC2CCN(S(C)(=O)=O)CC2)nc1N`: the GI50 in the test on SR leukemia was 0.644 µM; in the test on SK-OV-3 ovarian it was 13 µM; in the test with CAKI-1 renal it was 3.4 µM; in the test on HS 578T breast, 3.83 µM; in the test on COLO 205 colon it was 1.49 µM; with HCT-15 colon, 3.63 µM. Also, the GI50 in the test with K-562 leukemia is 6.55 µM. Further, the TGI with SR leukemia was over 11.8 µM; in the test with SK-OV-3 ovarian, over 25 µM; with CAKI-1 renal, over 22.9 µM; in the test on HS 578T breast, 15.9 µM; with COLO 205 colon, 5.69 µM; in the test with HCT-15 colon, over 25 µM. The same compound yielded a TGI in the test with K-562 leukemia of over 25 µM.
Regarding `CC(=O)OC1COC(Oc2c(C)c3c4c(c2O)[C@@H](C)CC[C@@H]4[C@@H](C)C[C@H]3C=C(C)C)C(O)C1OC(C)=O` (stereo partly drawn), the GI50 was 20.8 µM in the test with SK-OV-3 ovarian; 22.6 µM in the test with EKVX NSCLC; 12.6 µM with CAKI-1 renal; 46.8 µM in the test with HS 578T breast; 15.5 µM with COLO 205 colon; 5.76 µM with HCT-15 colon. In the test on K-562 leukemia, the GI50 is 12.5 µM. Besides, the TGI in the test with SK-OV-3 ovarian is 37.1 µM; with EKVX NSCLC, 45.5 µM; with CAKI-1 renal it was 26.3 µM; with HS 578T breast it was over 100 µM; in the test on COLO 205 colon it was 57.4 µM; with HCT-15 colon, 21.2 µM. The same compound returned a TGI in the test on K-562 leukemia of 32.8 µM.
In the case of `COc1cc(C(=O)N2CCN(C=O)C2=S)cc(OC)c1OC`, the GI50 is 21.9 µM in the test with SK-OV-3 ovarian; 31.8 µM in the test with EKVX NSCLC; 13.6 µM in the test with CAKI-1 renal; 27.6 µM in the test on HS 578T breast; 20.2 µM in the test with COLO 205 colon; 25.6 µM in the test with HCT-15 colon. Besides, in the test on K-562 leukemia, the GI50 is 30.8 µM. Also, the TGI is 72.8 µM in the test on SK-OV-3 ovarian; 97.6 µM in the test on EKVX NSCLC; 26.7 µM in the test on CAKI-1 renal; over 100 µM with HS 578T breast; 39.4 µM with COLO 205 colon; 73.6 µM in the test with HCT-15 colon. Moreover, the TGI in the test on K-562 leukemia is over 100 µM.
Take `COc1cc(Nc2ncccc2C(=O)NCc2cn(Cc3cccc(Oc4ccccc4)c3)nn2)cc(OC)c1`: the GI50 in the test with SK-OV-3 ovarian was 4.33 µM; in the test on EKVX NSCLC, 6.33 µM; in the test on CAKI-1 renal, 6.3 µM; in the test with HS 578T breast, over 100 µM; in the test with COLO 205 colon, 4.12 µM; in the test with HCT-15 colon, 3.89 µM. Moreover, in the test on K-562 leukemia, the GI50 was 5.05 µM. For the same compound, the TGI in the test on SK-OV-3 ovarian, in the test on EKVX NSCLC, in the test with CAKI-1 renal, in the test with HS 578T breast, with COLO 205 colon and in the test on HCT-15 colon was over 100 µM throughout. The compound also yielded a TGI with K-562 leukemia of over 100 µM.
Turning to `CC/C=C\C[C@H](O)C/C=C1/C(=O)C(Cl)=C[C@@H]1C/C=C\CCCC(=O)OC`, the GI50 is 4.72 µM in the test with SK-OV-3 ovarian; 1.03 µM in the test with EKVX NSCLC; 0.523 µM in the test with CAKI-1 renal; 0.626 µM in the test with HS 578T breast; 0.55 µM in the test with COLO 205 colon; 0.387 µM in the test with HCT-15 colon. The GI50 in the test with K-562 leukemia is 0.269 µM. For the same compound, the TGI in the test with SK-OV-3 ovarian amounted to 16.5 µM; in the test with EKVX NSCLC, 3.51 µM; in the test on CAKI-1 renal, 1.89 µM; with HS 578T breast it was 6.76 µM; in the test with COLO 205 colon, 1.69 µM; in the test with HCT-15 colon, 1.67 µM. Besides, the TGI with K-562 leukemia was determined as 16.7 µM.
On to `CC(=O)CCn1c(=S)sc2ccccc21`, for which the TGI with SK-OV-3 ovarian, with EKVX NSCLC, in the test with CAKI-1 renal, in the test with HS 578T breast, in the test with COLO 205 colon and in the test with HCT-15 colon was over 100 µM throughout.
On to `NC(N)=N/N=C/c1c(-c2ccsc2)nc2sccn12`, for which the GI50 with SK-OV-3 ovarian was 14.3 µM; in the test on EKVX NSCLC, 15.1 µM; in the test with CAKI-1 renal, 10.3 µM; with HCT-15 colon it was 17.1 µM; in the test on K-562 leukemia, 13.1 µM. Besides, the TGI came out at 30.3 µM in the test on SK-OV-3 ovarian; 29.4 µM with EKVX NSCLC; 21.9 µM with CAKI-1 renal; 31.7 µM with HCT-15 colon; 29.9 µM with K-562 leukemia.
For the compound `CNCc1ccccc1-c1csc([C@@H](C)Nc2nc(C)nc3cc(OC)c(OC)cc23)c1`, the GI50 is 0.624 µM in the test with SR leukemia; 4.67 µM in the test on SK-OV-3 ovarian; 1.61 µM with EKVX NSCLC; 1.28 µM in the test with CAKI-1 renal; 1.77 µM in the test on COLO 205 colon; 1.61 µM with HCT-15 colon. For the same compound, the GI50 in the test on K-562 leukemia was 0.168 µM. Further, the TGI with SR leukemia came out at 2.38 µM; in the test with SK-OV-3 ovarian, 18.8 µM; in the test with EKVX NSCLC it was 12.9 µM; in the test on CAKI-1 renal it was 2.55 µM; in the test on COLO 205 colon, 3.59 µM; with HCT-15 colon, 3.55 µM. Moreover, the TGI in the test on K-562 leukemia was 1.57 µM.

Values taken from PubChem BioAssay (NCI).
